Structures can show the parent of a compound that is named as a salt.
Test system: lipid peroxidation (brain homogenate)
Assay: Inhibitory action of lipid peroxidation in brain homogenate (TBA value)
Assay type: biochemical
Conditions: 500 μM; rat brain homogenate, 37° C., 30 minutes
Experimental: (1) Inhibitory action of lipid peroxidation (a) Preparation of brain homogenate By use of Wister-strain male rat, brain homogenate was prepared following the procedure as described below. […] Next, a brain perfusion was conducted through the tube with ice-cooled 50 mM phosphate-buffered physiological saline (pH 7.4) hereinafter referred to as "PBS"), and the whole brain was extirpated. After removal of cerebellum, the wet weight of cerebrum was measured and, with addition of 9-fold amount of PBS, it was broken by a Teflon homogenizer in ice-water to be homogenized. After the brain homogenate was subjected to centrifugation at 4° C. at 2200 rpm for 10 minutes, 0.3 ml of the supernatant was apportioned into a light-shielding test tube equipped with a ground stopper, to provide a brain homogenate for evaluation of medicine. (b) Evaluation of test medicine To the brain homogenate produced in (a), 0.6 ml of PBS and 10 μl of ethanolic solution of a test medicine were added (to a final concentration of 500 μM or a concentration at a common ratio of 3 between 0.3 and 100 μm), and the mixture was heated in a warm bath at 37° C. for 30 minutes. […] Also, the same operation was performed by addition of 10 μl of ethanol (blank) in place of 10 μl ethanolic solution of the test medicine for measurement of blank. […] After shaking for about 30 seconds, the mixture was subjected to centrifugation at 3000 rpm for 10 minutes, and the supernatant was provided as a sample for measurement of peroxidized lipid.

| SMILES | Inhibitory percentage at 500 μM [%] |
| --- | --- |
| CC1=NN(c2ccc(C(=O)O)cc2)C(=O)C1 [Compound 21] | 34.0 |
| CC1=NN(CCO)C(=O)C1 [Compound 39, 1-(2-Hydroxyethyl)-3-methyl-2-pyrazolin-5-one] | 39.2 |
| CC1=NNC(=O)C1 [Compound 37, 3-Methyl-2-pyrazolin-5-one] | 34.3 |
| CC1=NN(C)C(=O)C1 [Compound 38, 1,3-Dimethyl-2-pyrazolin-5-one] | 45.5 |
| CC1=NN(c2ccccc2)C(=O)C1CCO (stereo not drawn) [Compound 32, 4-(2-Hydroxyethyl)-3-methyl-1-phenyl-2-pyrazolin-5-one] | 62.7 |

Same assay, conditions: inhibition of lipid peroxidation, rat brain homogenate, 37° C., 30 minutes

| SMILES | IC50 [µM] |
| --- | --- |
| CC1=NN(c2ccccc2)C(=O)C1Sc1ccccc1 (stereo not drawn) [Compound 34] | 146 |
| O=C1CC(c2ccccc2)=NN1c1ccc(Cl)cc1 [Compound 29] | 1.2 |
| CC1=NN(c2ccc(CO)cc2)C(=O)C1 [Compound 49, 1-(4-hydroxymethylphenyl)-3-methyl-2-pyrazolin-5-one] | 51.8 |
| CC1=NN(c2ccccc2O)C(=O)C1 [Compound 44, 1-(2-hydroxyphenyl)-3-methyl-2-pyrazolin-5-one] | 35.5 |
| CC1=NN(c2ccccc2C)C(=O)C1 [Compound 2] | 392 |
| CCOC(=O)CC1=NN(c2ccccc2)C(=O)C1 [Compound 36, 3-(Ethoxycarbonylmethyl)-1-phenyl-2-pyrazolin-5-one] | 32.2 |
| CC1=NN(c2ccccc2Cl)C(=O)C1 [Compound 14] | 97.8 |
| COc1ccccc1N1N=C(C)CC1=O [Compound 9] | 2130 |
| CC1=NN(Cc2ccccc2)C(=O)C1 [Compound 41] | 32.9 |
| O=C1CC(c2ccccc2)=NN1c1ccccc1 [Compound 26, 1,3-Diphenyl-2-pyrazolin-5-one] | 0.08 |
| CC1=NN(c2ccc(N)cc2)C(=O)C1 [Compound 50, 1-(4-aminophenyl)-3-methyl-2-pyrazolin-5-one dihydrochloride] | 32.1 |

The remaining lines, values ahead:

| IC50 [µM] | SMILES |
| --- | --- |
| 27.2 | CN1N=C(c2ccccc2)CC1=O [Compound 43] |
| 23.9 | CC1=NN(c2ccc(O)cc2)C(=O)C1 [Compound 46] |
| 23 | COc1ccc(N2N=C(C)CC2=O)cc1OC [Compound 12] |
| 21.2 | CC1=NN(c2cccc(O)c2)C(=O)C1 [Compound 45] |
| 16.2 | CC1=NN(c2ccccc2)C(=O)C1Oc1ccccc1 (stereo not drawn) [Compound 33] |
| 15.1 | CCC1=NN(c2ccccc2)C(=O)C1 [Compound 24, 3-Ethyl-1-phenyl-2-pyrazolin-5-one] |
| 12.1 | CC1=NN(c2ccc(F)cc2)C(=O)C1 [Compound 18] |
| 8 | CC1=NN(c2cccc(C)c2)C(=O)C1 [Compound 3] |
| 7.1 | COc1cccc(N2N=C(C)CC2=O)c1 [Compound 10] |
| 6 | CC1=NN(c2ccc(C)c(C)c2)C(=O)C1 [Compound 5] |
| 5.2 | CCOC(=O)c1ccc(N2N=C(C)CC2=O)cc1 [Compound 22] |
| 5.1 | CC1=NN(c2ccc([N+](=O)[O-])cc2)C(=O)C1 [Compound 23] |
| 5.1 | CSc1cccc(N2N=C(C)CC2=O)c1 [Compound 20] |
| 4.9 | CC1=NN(c2cccc3ccccc23)C(=O)C1 [Compound 42] |
| 4.1 | CC1=NN(c2ccc(C)c(Cl)c2)C(=O)C1 [Compound 19] |
| 3.9 | CC1=NN(c2cccc(C(F)(F)F)c2)C(=O)C1 [Compound 8] |
| 3.4 | CC1=NN(c2cccc(Cl)c2)C(=O)C1 [Compound 15] |
| 3 | COc1ccc(N2N=C(c3ccccc3)CC2=O)cc1 [Compound 28] |
| 2.7 | O=C1CC(c2ccccc2)=NN1c1ccc(O)cc1 [Compound 48] |
| 2.2 | CCCCc1ccc(N2N=C(C)CC2=O)cc1 [Compound 7] |
| 1.6 | CC1=NN(c2ccc(Cl)c(Cl)c2)C(=O)C1 [Compound 17] |
| 1.3 | CC1=NN(c2ccc(O)c(O)c2)C(=O)C1 [Compound 47] |
| 1.2 | Cc1ccc(N2N=C(c3ccccc3)CC2=O)cc1 [Compound 27] |

Source: patent publication USRE35801E, “Prophylactic and therapeutic composition for circulatory disorders and method of treatment” (priority 1985, dated 1998)
